One data set concerns the target T1, DOR (Rattus norvegicus, UniProt P33533).
T1 construct: from tissue; host or cells: rat brain membranes
Description: DOR competitive radioligand binding ([3H]-DPDPE displacement, rat brain membranes).

Data set [1] addresses T2, KOR (Cavia porcellus, UniProt P41144).
T2 construct: from tissue; host or cells: guinea pig brain membranes
Kind of data set: KOR competitive radioligand binding ([3H]-(+)-U69,593 displacement, guinea pig brain membranes).

Data set [2] deals with T3, MOR (Rattus norvegicus, UniProt P33535). Description: Inhibition of forskolin-stimulated cAMP accumulation in HEK293 cells stably expressing MOR. The class given is cell-based. As to conditions: maximal percent inhibition of cAMP accumulation, read-out: Imax (%) ± SD MOR. The procedure:
As typical Gi/o coupled receptor, MOR, DOR and KOR signals are mediated by AC inhibition.
(§1) Cell culture. HEK293 cells stably expressing either the EE-tagged MOR or the flag-tagged KOR [20, 21, 22] were grown in Dulbecco’s modified Eagle’s medium (DMEM) supplemented with 10% fetal calf serum, 2 mM glutamine, 100 U/mL penicillin, and 0.1 mg/mL streptomycin under 5% CO2 at 37 °C.
(§2) Measurements of cAMP accumulation. Measurements of AC activity were performed as described by Papakonstantinou et al. or the GloSensor cAMP Assay (Promega) following the Manufacturer’s instructions. The generation of cAMP was assessed in response to treatment of the cells with various concentrations of the appropriate ligand (10 pM–50 μΜ) using 50 μΜ forskolin at 37 °C. Values are means ± SD of triplicate determinations from three independent experiments. Analysis of the data was performed using Origin 7.5 software (OriginLab Corporation, Northampton, MA, USA).
On the technique in general: cAMP levels reflect the balance of adenylyl cyclase and phosphodiesterase activity.

For data set [3], the target named is T4, KOR (Homo sapiens, UniProt P41145).
T4 construct: FLAG; expressed in transfected cells
Kind of data set: Inhibition of forskolin-stimulated cAMP accumulation in HEK293 cells stably expressing KOR. The class given is cell-based. As to conditions: for Imax (%) ± SD KOR: maximal percent inhibition of cAMP accumulation; for Imax (%) ± SD KOR / cAMP inhibition: HEK293-KOR; for cAMP inhibition: only at very high concentrations, not dose-dependent. The procedure:
As typical Gi/o coupled receptor, MOR, DOR and KOR signals are mediated by AC inhibition. Given the significant MOR and moderate KOR affinity, to examine the functional role of target compounds, in opioid receptor signaling, the ability of 5a–d and 6a–d to affect forskolin-stimulated AC activity in HEK293 cells stably expressing the MOR or KOR was tested and the results are reported in Table 2.
as §1, §2

For data set [4], the target named is T3, MOR. Kind of data set: MOR competitive radioligand binding ([3H]-DAMGO displacement, rat brain membranes). Set-up: from tissue; host or cells: rat brain membranes.

Counter-ions that a name gives are not always drawn.

For `C[C@H]1[C@H]2Cc3ccc(O)cc3[C@]1(C)CCN2CCCNc1ccccc1` [6a, (2R,6R,11R)-3-(3-Anilinopropyl)-6,11-dimethyl-1,2,3,4,5,6-hexahydro-2,6-methano-3-benzazocin-8-ol], the Ki – broadly, the dissociation constant of the complex between target and ligand, obtained from inhibition or displacement – on DOR was determined as 117 ± 5.2 nM; at KOR [1] it was 71 ± 2 nM; at MOR [4], 7 ± 0.6 nM. For the same molecule, the Emax on MOR [2] amounted to 50 ± 3%. Also, the IC50 (commonly the concentration at which inhibition is half-maximal) against KOR [3] was found to be 1400 ± 69 nM. Besides, the “Imax (%) ± SD KOR” value on KOR [3] is 53 ± 4%.

On to `C[C@H]1[C@H]2Cc3ccc(O)cc3[C@]1(C)CCN2CCCN(C)c1ccccc1` [6c, (2R,6R,11R)-6,11-Dimethyl-{3-[methyl(phenyl)amino]propyl}-1,2,3,4,5,6-hexahydro-2,6-methano-3-benzazocin-8-ol], for which the Ki at DOR was over 5000 nM; on KOR [1], 94 ± 3.5 nM; on MOR [4], 68 ± 1.6 nM. Also, the Emax at MOR [2] came out at 50 ± 3%. Moreover, the cAMP inhibition at KOR [3] turned out to be 30%.

On to `CCN(CCN1CC[C@@]2(C)c3cc(O)ccc3C[C@@H]1[C@@H]2C)c1ccccc1` (as salt: oxalate) [5d, (2R,6R,11R)-6,11-Dimethyl-{2-[ethyl(phenyl)amino]ethyl}-1,2,3,4,5,6-hexahydro-2,6-methano-3-benzazocin-8-ol], for which the melting point (usually the temperature, or range, at which the solid turns liquid) lay within 158 to 160 °C.

With `CCN(CCN1CC[C@@]2(C)c3cc(O)ccc3C[C@@H]1[C@@H]2C)c1ccccc1` [5d, (2R,6R,11R)-6,11-Dimethyl-{2-[ethyl(phenyl)amino]ethyl}-1,2,3,4,5,6-hexahydro-2,6-methano-3-benzazocin-8-ol], the results for the Ki on DOR, at KOR [1] and at MOR [4] were 411 ± 14 nM, 28.7 ± 1 nM and 160 ± 7 nM, respectively. Also, the Emax on MOR [2] amounted to 55 ± 3%. The cAMP inhibition on KOR [3] turned out to be 30%.

For `C[C@@H](NC(=O)[C@@H](N)Cc1ccc(O)cc1)C(=O)NCC(=O)N(C)[C@@H](Cc1ccccc1)C(=O)NCCO` [DAMGO, reference compound], the Emax at MOR [2] was 73 ± 0.3%.

For `Oc1ccc2c3c1O[C@H]1c4[nH]c5ccccc5c4C[C@@]4(O)[C@@H](C2)N(CC2CC2)CC[C@]314` [Naltrindole, reference compound], the affinity at DOR corresponds to a Ki of 1.13 ± 0.1 nM.

As to `C[C@H]1[C@H]2Cc3ccc(O)cc3[C@]1(C)CCN2CCNC1CCCCC1` [5b, (2R,6R,11R)-3-[2-(Cyclohexylamino)ethyl)-6,11-dimethyl-1,2,3,4,5,6-hexahydro-2,6-methano-3-benzazocin-8-ol], the Ki on DOR was 70 ± 2 nM; on KOR [1], 19.8 ± 0.9 nM; at MOR [4] it was 8.3 ± 0.8 nM. Further, the Emax at MOR [2] stood at 28 ± 1%. Also, half-maximal inhibition on KOR [3] (IC50) required 180 ± 50 nM. On KOR [3], the “Imax (%) ± SD KOR” value is 58 ± 4%.

As to `C[C@H]1[C@H]2Cc3ccc(O)cc3[C@]1(C)CCN2CCCNC1CCCCC1` [6b, (2R,6R,11R)-3-[3-(Cyclohexylamino)propyl)-6,11-dimethyl-1,2,3,4,5,6-hexahydro-2,6-methano-3-benzazocin-8-ol], the Ki is over 5000 nM on DOR, 126 ± 4.5 nM at KOR [1] and 48 ± 1.4 nM on MOR [4]. The IC50 against KOR [3] is over 5000 nM. Besides, on KOR [3], the “Imax (%) ± SD KOR” value was determined as 44 ± 3%.

For `CCN(CCCN1CC[C@@]2(C)c3cc(O)ccc3C[C@@H]1[C@@H]2C)c1ccccc1` [6d, (2R,6R,11R)-6,11-Dimethyl-{3-[ethyl(phenyl)amino]propyl}-1,2,3,4,5,6-hexahydro-2,6-methano-3-benzazocin-8-ol], the Ki on DOR was determined as 1060 ± 152 nM; at KOR [1], 56 ± 1.7 nM; at MOR [4], 86 ± 3 nM. For the same molecule, the Emax at MOR [2] worked out at 40 ± 2%. Also, the cAMP inhibition at KOR [3] stood at 30%.

Regarding `C[C@H]1[C@H]2Cc3ccc(O)cc3[C@]1(C)CCN2CCNc1ccccc1` [5a, (2R,6R,11R)-3-(2-Anilinoethyl)-6,11-dimethyl-1,2,3,4,5,6-hexahydro-2,6-methano-3-benzazocin-8-ol], the Ki on DOR came out at 270 ± 10 nM; on KOR [1], 100 ± 5 nM; on MOR [4] it was 83 ± 30 nM. For the same molecule, at MOR [2], the Emax was 60 ± 4%. Besides, at KOR [3], the IC50 is 1000 ± 65 nM.

Source of the values: article PMC6017588, “Synthesis and Structure-Activity Relationships of LP1 Derivatives: N-Methyl-N-phenylethylamino Analogues as Novel MOR Agonists” (Molecules : A Journal of Synthetic Chemistry and Natural …, 2018).
